The results in this text go back to ChEMBL document CHEMBL1139472, “Synthesis of N-{4-[(2,4-diamino-5-methyl-4,7-dihydro-3H-pyrrolo[2,3-d]pyrimidin-6-yl)thio]benzoyl}-L-glutamic acid and N-{4-[(2-amino-4-oxo-5-methyl-4,7-dihydro-3H-pyrrolo[2,3-d]pyrimidin-6-yl)thio]benzoyl}-L-glutamic acid as dual inhibitors of dihydrofolate reductase and thymidylate synthase and …” (J Med Chem, 2005).

For assay [1], the target named is T1, Folylpolyglutamate synthase, mitochondrial (Homo sapiens) (UniProt Q05932).
T1 sequence (whole entry): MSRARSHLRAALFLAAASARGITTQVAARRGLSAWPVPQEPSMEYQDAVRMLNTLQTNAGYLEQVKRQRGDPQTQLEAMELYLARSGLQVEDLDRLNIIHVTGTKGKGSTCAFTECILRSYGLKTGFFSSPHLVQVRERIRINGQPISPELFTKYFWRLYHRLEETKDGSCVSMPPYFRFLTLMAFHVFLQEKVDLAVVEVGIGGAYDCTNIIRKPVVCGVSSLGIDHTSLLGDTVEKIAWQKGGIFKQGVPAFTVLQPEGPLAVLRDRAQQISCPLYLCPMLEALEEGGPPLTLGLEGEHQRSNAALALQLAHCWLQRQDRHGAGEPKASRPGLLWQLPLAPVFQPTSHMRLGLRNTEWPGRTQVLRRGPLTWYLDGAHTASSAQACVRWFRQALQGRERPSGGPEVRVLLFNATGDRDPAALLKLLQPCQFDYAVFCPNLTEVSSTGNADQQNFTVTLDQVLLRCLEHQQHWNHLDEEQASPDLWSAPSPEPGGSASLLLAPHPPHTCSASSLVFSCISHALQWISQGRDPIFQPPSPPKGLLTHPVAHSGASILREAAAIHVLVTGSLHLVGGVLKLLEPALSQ
Briefly: Ratio of Vmax relative to […] to Km of human recombinant cytosolic FPGS.

The test system of another assay is CCRF-CEM. Description: Growth inhibition of human CCRF-CEM cells at 20 uM. The format is functional, cell-based.

The source made the active and inactive calls. The calls are words filed in the database; no cut-off is given here.

In the case of `Cc1c(Sc2ccc(C(=O)N[C@@H](CCC(=O)O)C(=O)O)cc2)[nH]c2nc(N)[nH]c(=O)c12`, the Ratio in assay [1] is 0.06. For the same molecule, in the assay with CCRF-CEM, the result was inactive. In the case of `Nc1nc(N)c2nc(CNc3ccc(C(=O)N[C@@H](CCC(=O)O)C(=O)O)cc3)cnc2n1`, the Ratio in assay [1] is 0.17.
